The source of these data is US20240288449A1, “METHODS FOR DIAGNOSING A CANCER- OR ANTIBIOTICS-INDUCED DYSBIOSIS AND THEIR USE FOR IMPROVING CANCER TREATMENT BY IMMUNOTHERAPY” (INSTITUT GUSTAVE ROUSSY, priority 2021, published 2024).

The test system of assay [1] is MAdCAM-1 (Madcam1 gene expression). The assay is described as follows: Madcam1 gene and protein expression in gut tissues of mice (RT-PCR, IHC, flow cytometry, ELISA). It is filed as in vivo, C57BL/6J mice. To be noted: for Madcam1 gene expression in ileal LP / Madcam1 gene expression in mesenteric lymph nodes (mLN): single antibiotic regimen, 7 days conditioning. How it is done:
(§1) Antibiotic treatments. If not indicated otherwise, mice were treated with a broad spectrum antibiotic solution (ATB) containing ampicillin (1 mg/ml), streptomycin (5 mg/ml), and colistin (1 mg/ml) (Sigma-Aldrich) added to the sterile drinking water of mice. In experiments where single antibiotics were used the concentrations were ampicillin (1 mg/ml), streptomycin (5 mg/ml), colistin (1 mg/ml), erythromycin (1 mg/ml) or ciprofloxacin (0.1 mg/ml) respectively. Solutions and bottles were changed 2 times weekly. Antibiotic activity, in the experiments where the antibiotic mix was used, was confirmed by cultivating fecal pellets resuspended in BHI+15% glycerol at 0.1 g/ml on COS (Columbia Agar with 5% Sheep Blood) plates for 48 h at 37° C. in aerobic and anaerobic conditions weekly. Duration of ATB treatment was slightly different (7-14 days before aPD-1 treatment) based on the experimental settings and is indicated in results for each experiment. In brief, to compromise the efficacy of anti-PD-1 mAb, mice were treated with ATB for one to two weeks before tumor implantation and ATB was continued throughout the experiment or discontinued on the day of anti PD-1 treatment initiation as indicated in the individual experiment. In the context of fecal microbial transplantation experiments, mice received 3 days of ATB before undergoing fecal microbial transplantation the next day by oral gavage using animal feeding needles. In the TC-1 model, ATB treatment was started 3 days before tumor injection and discontinued one day before the first bacterial gavage.
Oral bacterial gavage with commensal species. Akkermansia muciniphila CSUR P2261, and A. indistinctus CSUR P723 were provided by the Institut hospitalo-universitaire Méditerranée Infection, Marseille, France. Enterococcus hirae 13144 isolates were originally isolated from spleens or mesenteric lymph nodes of SPF mice treated with CTX at Gustave Roussy Cancer Campus. A. muciniphila was grown on COS plates in an anaerobic atmosphere created using 3 anaerobic generators (Biomerieux) at 37° C. for at least 72 h. E. hirae 13144 were grown on 5% sheep blood enriched Columbia agar for 24 h at 37° C. in aerobic conditions. Colonization of ATB pre-treated or GF C57BL/6 mice was performed by oral gavage with 100 μl of suspension containing 1×10^8 bacteria. For bacterial gavage: suspensions of […] were obtained using a fluorescence spectrophotometer (Eppendorf) at an optical density of 600 nm in PBS. Five bacterial gavages were performed for each mouse, the first 24 h before the first injection of antiPD-1 mAb and subsequently four times on the same day as anti-PD-1 mAb injection. The efficacy of colonization with E. hirae 13144 was confirmed by culturing the feces 48 h post gavage. Fecal pellets were harvested and resuspended in BHI+15% glycerol at 0.1 g/ml. Serial dilutions of feces were plated onto 5% sheep blood enriched Columbia agar and incubated for 48 h at 37° C. in aerobic and anaerobic conditions. After 48 h, single colonies were isolated and Gram staining was performed. The identification of specific bacteria was accomplished using a Matrix-Assisted Laser Desorption/Ionisation Time of Flight (MALDI-TOF) mass spectrometer (Andromas, Beckman Coulter, France).
RNA extraction and rtPCR. Lysis and extraction protocols were identical for human and mouse samples. Tumor or intestinal samples were snap frozen in liquid nitrogen in RLT Plus buffer containing 0.1% beta mercaptoethanol. On the day of extraction samples were thawed at 4° C. and homogenized on a microtube homogenizer (Benchmark Scientific) in RNA free glass bead tubes (Dutscher). Total RNA extraction and genomic DNA removal were performed with the RNeasy Mini kit (Qiagen), following the manufacturer's recommendations. […]
(In flow cytometry, cells or beads pass a laser one at a time.)

The test system of assay [2] is RORγt+ Treg (Tr17) in MCA205 and 4T1 tumors. Description: Flow cytometry of tumor infiltrating lymphocytes and mLN (Tr17 subsets). Conditions: oral gavage after ATB stop, s.c. MCA205, αPD-1-based therapy. It is filed as in vivo, mice. How it is done:
as §1, with “In the context of fecal microbial transplantation experiments, mice received 3 days of ATB before undergoing fecal microbial transplantation the next day by oral gavage using animal feeding needles. In the TC-1 model, ATB treatment was started 3 days before tumor injection and discontinued one day before the first bacterial gavage.” left out
Subcutaneous model of MCA-205 sarcoma, MC38 and RET melanoma. […] Tumor length and width was routinely monitored every 3 times per week by means of a caliper. […]

In assay [3] the test system is metastatic clear cell renal cell carcinoma (RCC). The assay is described as follows: NIVOREN trial, second line anti-PD1 in renal cell carcinoma patients. The format is in vivo, human.
For assay [4], the system named is metastatic bladder cancer. Description: STRONG study, Durvalumab in pre-treated metastatic bladder cancer patients. The format is in vivo, human. Conditions: 79 patients, 1500 mg iv /4 weeks. How it is done: Finally, we sought to triplicate the predictive value of sMAdCAM-1 in a subcohort of a Phase 3a trial enrolling pre-treated metastatic bladder cancer patients to receive a fixed dose of 1500 mg of Durvalumab iv (anti-PD-L1 Abs)/4 weeks. In this STRONG study, 79 patients only were analyzed, with an overall median OS of 5.79 months, and a median PFS of 2.79 months. We selected the extreme of the STRONG cohort, 30 Elite patients (OS>6 months, PFS>5 months, PR+CR only) and rapid progressors (n=49, with OS<6 months and PFS<5 months and PD at the first CT scan). In this cohort, the MAdCAM-1 median (min,max) was 158.8 ng/ml (53.41, 244.36).

[5] abbreviates: NIVOREN trial, N=729 RCC patients.

`CN[C@H](CC(C)C)C(=O)N[C@H]1C(=O)N[C@@H](CC(N)=O)C(=O)N[C@H]2C(=O)N[C@H]3C(=O)N[C@H](C(=O)N[C@H](C(=O)O)c4cc(O)cc(O)c4-c4cc3ccc4O)[C@H](O)c3ccc(c(Cl)c3)Oc3cc2cc(c3O[C@@H]2O[C@H](CO)[C@@H](O)[C@H](O)[C@H]2O[C@H]2C[C@](C)(N)[C@H](O)[C@H](C)O2)Oc2ccc(cc2Cl)[C@H]1O` [vancomycin]: in assay [1] (RT-PCR), the “Madcam1 gene expression in ileal LP” value is “upregulated” and the “Madcam1 gene expression in mesenteric lymph nodes (mLN)” value (“Madcam1 gene expression … (mLN)” for short) is “failed to downregulate”.
With `[H]/N=C(/N)N[C@H]1[C@H](O)[C@@H](O)[C@H](O[C@@H]2O[C@@H](C)[C@](O)(C=O)[C@H]2O[C@@H]2O[C@@H](CO)[C@H](O)[C@@H](O)[C@@H]2NC)[C@@H](N/C(N)=N\[H])[C@@H]1O` [streptomycin], in assay [1] (RT-PCR), the “Madcam1 gene expression in Peyers' patches (PP)” value is reported as “downregulated”, the “Madcam1 gene expression in ileal LP” value is “downregulated” and the “Madcam1 gene expression … (mLN)” value was “downregulated”.
As for Lactobacillus reuteri, the “Madcam1 ileal gene expression” value in assay [1] (oral supplementation of FMT recipients) was “could further influence”. Further, the “Tr17 recruitment promoted by PD1 inhibition” value in assay [2] is “failed to do so”.
Regarding Nivolumab: anti-PD1 mAb, in assay [3] (setting [5]), the complete responses was determined as 1.2%, the objective response rate was 20.8%, the partial responses is 19.6% and the “progressive diseases (PD)” value is reported as 79.2%. In assay [3] (Overall (n = 212) RCC patients), the “Best response: Partial response” value is listed as “(7.1) %” and the “Best response: Progressive disease” value is recorded as “(49.7) %”.
With Durvalumab: anti-PD-L1 Abs, in assay [4], the “median PFS” value amounted to 2.79 months and the “overall median OS” value is 5.79 months.
Regarding `CC[C@H]1OC(=O)[C@H](C)[C@@H](O[C@H]2C[C@@](C)(OC)[C@@H](O)[C@H](C)O2)[C@H](C)[C@@H](O[C@@H]2O[C@H](C)C[C@H](N(C)C)[C@H]2O)[C@](C)(O)C[C@@H](C)C(=O)[C@H](C)[C@@H](O)[C@]1(C)O` [erythromycin], in assay [1] (RT-PCR), the “Madcam1 gene expression … (mLN)” value was “downregulate”.
The same measure, in the same setting: to `CC1(C)S[C@@H]2[C@H](NC(=O)[C@H](N)c3ccccc3)C(=O)N2[C@H]1C(=O)O` [ampicilline, ampicillin] belongs “downregulate”.
